9 compounds from ChEMBL document CHEMBL1134436, “Significance of hydrogen bonding at the S(1)' subsite of calpain I” (Bioorg Med Chem Lett, 2001) can be followed below.

In the test the target is T1, Calpain-1 catalytic subunit (Sus scrofa, UniProt P35750).
T1 sequence (P35750 whole entry): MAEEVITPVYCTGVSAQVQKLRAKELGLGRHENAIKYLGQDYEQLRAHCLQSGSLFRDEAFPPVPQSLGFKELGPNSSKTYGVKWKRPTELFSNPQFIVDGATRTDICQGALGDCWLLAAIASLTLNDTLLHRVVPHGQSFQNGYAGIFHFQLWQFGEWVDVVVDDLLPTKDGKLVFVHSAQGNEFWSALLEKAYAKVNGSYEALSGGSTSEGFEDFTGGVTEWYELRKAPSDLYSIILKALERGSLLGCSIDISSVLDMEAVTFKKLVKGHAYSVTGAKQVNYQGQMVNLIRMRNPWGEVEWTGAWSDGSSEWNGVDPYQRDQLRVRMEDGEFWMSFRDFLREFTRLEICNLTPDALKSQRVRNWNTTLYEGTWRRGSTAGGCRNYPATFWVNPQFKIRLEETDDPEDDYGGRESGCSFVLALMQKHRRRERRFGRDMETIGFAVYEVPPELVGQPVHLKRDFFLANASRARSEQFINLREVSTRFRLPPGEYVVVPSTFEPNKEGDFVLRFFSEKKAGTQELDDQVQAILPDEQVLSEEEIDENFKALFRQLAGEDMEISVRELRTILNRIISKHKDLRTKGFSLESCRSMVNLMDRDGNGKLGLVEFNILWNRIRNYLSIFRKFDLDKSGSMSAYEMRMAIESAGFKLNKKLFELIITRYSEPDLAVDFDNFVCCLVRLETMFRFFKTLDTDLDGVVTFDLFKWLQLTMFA
The experiment in a line: Binding affinity was evaluated against porcine erythrocyte Calpain 1 at the S1 subsite of the enzyme.

For the compound `CCON(C)C(=O)C(=O)[C@H](Cc1ccccc1)NC(=O)[C@H](CC(C)C)NC(=O)OCc1ccccc1`, affinity was put at a Ki of 750 nM.
In the case of `CC(C)C[C@H](NC(=O)OCc1ccccc1)C(=O)N[C@@H](Cc1ccccc1)C(=O)C(=O)NOCc1ccccc1`, the Ki (usually the equilibrium dissociation constant of an inhibitor or competing ligand from its target) came out at 45 nM.
The compound `CC(C)C[C@H](NC(=O)OCc1ccccc1)C(=O)N[C@@H](Cc1ccccc1)C(=O)C(=O)N(C)OCc1ccccc1` had a Ki of 673 nM.
The compound `CCONC(=O)C(=O)[C@H](Cc1ccccc1)NC(=O)[C@H](CC(C)C)NC(=O)OCc1ccccc1` came in with a Ki of 62 nM.
The compound `CC(C)C[C@H](NC(=O)OCc1ccccc1)C(=O)N[C@@H](Cc1ccccc1)C(=O)C(=O)NCCc1ccccc1` yielded an inhibition constant (Ki) of 72 nM.
`CCCNC(=O)C(=O)[C@H](Cc1ccccc1)NC(=O)[C@H](CC(C)C)NC(=O)OCc1ccccc1` showed a Ki of 107 nM.
Next, `CCN(OCc1ccccc1)C(=O)C(=O)[C@H](Cc1ccccc1)NC(=O)[C@H](CC(C)C)NC(=O)OCc1ccccc1`: 28000 nM.
Next, `CCN(CC)C(=O)C(=O)[C@H](Cc1ccccc1)NC(=O)[C@H](CC(C)C)NC(=O)OCc1ccccc1`: 76000 nM.
Regarding `CCNC(=O)C(=O)[C@H](Cc1ccccc1)NC(=O)[C@H](CC(C)C)NC(=O)OCc1ccccc1`, the affinity, expressed as Ki, was 200 nM.
